ChEMBL document CHEMBL1156243
The source made the active and inactive calls.

Key:
[1] = Binding affinity to amyloid beta (1 to 42) fibrils by change in fluorescence at 100 uM after 10 mins
[2] = Binding affinity to amyloid beta (1 to 42) oligomers by change in fluorescence at 100 uM after 10 mins
[3] = Inhibition of amyloid beta (1 to 42) aggregation […] after 48 hrs by fluorescence imaging

Structure (SMILES) | Activity [1] | Activity [2] | inhibition [3]
O=c1oc2c(O)c(O)cc3c(=O)oc4c(O)c(O)cc1c4c23 | inactive | inactive | 
NCCc1ccc(O)c(O)c1 | inactive | inactive | 
COc1ccc2[nH]cc(CCNC(C)=O)c2c1 | Active | Active | inactive
O=S1(=O)OC(c2ccc(O)cc2)(c2ccc(O)cc2)c2ccccc21 | inactive | inactive | 
O=C(c1ccccc1)c1ccccc1 | inactive | inactive | 
COc1cc(/C=C/C(=O)NCc2cccc(CNC(=O)/C=C/c3ccc(O)c(OC)c3)c2)ccc1O | inactive | inactive | 
O=C1C[C@@H](c2ccc(O)cc2)Oc2cc(O)cc(O)c21 | inactive | inactive | 
CC(C)OC(=O)C(C)(C)Oc1ccc(C(=O)c2ccc(Cl)cc2)cc1 | inactive | inactive | 
COc1cc(/C=C/C(=O)CC(=O)/C=C/c2ccc(O)c(OC)c2)ccc1O | inactive | inactive | 
COc1cc(/C=C/C(=O)NCCCCCCCCNC(=O)/C=C/c2ccc(O)c(OC)c2)ccc1O | inactive | inactive | 
COc1ccc(/C=C/C(=O)c2ccccc2)cc1 | inactive | inactive | 
O=c1cc2oc3cc(O)c(-c4ccc(O)cc4O)cc3nc-2cc1-c1ccc(O)cc1O | inactive | inactive | 
O=C(c1ccccc1)c1ccc(O)c(O)c1O | inactive | inactive | 
CN(C)c1ccc2nc3ccc(N)cc3[s+]c2c1 | inactive | inactive | 
O=C1c2ccccc2Cc2ccccc21 | inactive | inactive | 
C=C1c2c(Cl)ccc(O)c2C(=O)C2=C(O)[C@]3(O)C(=O)C(C(N)=O)=C(O)[C@@H](N(C)C)[C@@H]3[C@@H](O)[C@H]12.O=C(O)c1cc(S(=O)(=O)O)ccc1O | Active | Active | 
COc1ccc(/C=C/c2ccc(/C=C/c3ccc(OC)c(OCc4ccccc4)c3)c(Br)c2)cc1OCc1ccccc1 | Active | Active | 
Nc1c2ccccc2nc2ccccc12 | Active | Active | 
O=C(/C=C/c1cccc(O)c1)c1ccccc1 | inactive | inactive | 
COc1ccc(/C=C/C(=O)c2cccc(N)c2)cc1OC | inactive | inactive | 
O=C(O)C(=O)Cc1c[nH]c2ccccc12 | Active | Active | 
COc1cc(/C=C/C(=O)NCCCCNC(=O)/C=C/c2ccc(O)c(OC)c2)ccc1O | inactive | inactive | 
CN(C)c1ccc(N=Nc2ccccc2)cc1 | inactive | inactive | 
O=C(O[C@@H]1Cc2c(O)cc(O)cc2O[C@@H]1c1cc(O)c(O)c(O)c1)c1cc(O)c(O)c(O)c1 | inactive | inactive | 
O=c1c(O)c(-c2ccc(O)c(O)c2)oc2cc(O)cc(O)c12 | inactive | inactive | 
O=c1c(O)c(-c2cc(O)c(O)c(O)c2)oc2cc(O)cc(O)c12 | inactive | inactive | 
COc1ccc(C=O)cc1OC | inactive | inactive | 

Structure (SMILES) | Activity [1] | Activity [2] | inhibition [3]
COc1ccc2c(c1)c(CC(=O)O)c(C)n2C(=O)c1ccc(Cl)cc1 | inactive | inactive | 
COc1cc(/C=C/C(=O)O)ccc1O | Active | Active | 
CN(C)c1ccc(O)c2c1C[C@H]1C[C@H]3[C@H](N(C)C)C(O)=C(C(N)=O)C(=O)[C@@]3(O)C(O)=C1C2=O | inactive | inactive | 
COc1ccc(/C=C/c2cccc(/C=C/c3ccc(OC)c(OC)c3)c2)cc1OC | Active | Active | 
CN(C)c1ccc(N=Nc2ccccc2C(=O)O)cc1 | inactive | inactive | 
O=C(O)/C=C/c1cccc(O)c1 | inactive | inactive | 
CN(C)c1ccc(N=Nc2ccc(S(=O)(=O)O)cc2)cc1 | inactive | inactive | 
O=C(c1ccccc1O)c1ccccc1O | inactive | inactive | 
CC(=O)c1ccccc1 | inactive | inactive | 
Oc1cc(O)c2c(c1)O[C@H](c1ccc(O)c(O)c1)[C@H](O)C2 | inactive | inactive | 
COc1cccc(C=O)c1O | inactive | inactive | 
Nc1ccc2nc3ccc(N)cc3[s+]c2c1 | inactive | inactive | 
O=C1C=CC(=O)c2c(O)cccc21 | inactive | inactive | 
CCN(CC)c1ccc2c(-c3ccccc3C(C)=O)c3ccc(=[N+](CC)CC)cc-3oc2c1 | Active | Active | 
CC(Cc1ccc(O)c(O)c1)C(C)Cc1ccc(O)c(O)c1 (stereo unspecified) | inactive | inactive | 
O=C(/C=C/c1ccccc1)c1ccccc1 | inactive | inactive | 
CN(C)c1ccc2nc3ccc(=[N+](C)C)cc-3sc2c1 | inactive | inactive | 
COc1ccc(C=O)cc1 | inactive | inactive | 
O=C1C=Cc2ccccc2C1=O | Active | Active | 
O=S(=O)(O)c1cc(S(=O)(=O)O)c2c(/N=N/c3ccccc3)c(O)ccc2c1 | inactive | inactive | 
Oc1cc(O)c2c(c1)O[C@H](c1ccc(O)c(O)c1)[C@@H](O)C2 | inactive | inactive | 
COc1ccc(/C=C/C(=O)c2ccccc2)cc1OC | inactive | inactive | 
CN(C)[C@@H]1C(O)=C(C(N)=O)C(=O)[C@@]2(O)C(O)=C3C(=O)c4c(O)cccc4[C@@](C)(O)[C@H]3C[C@@H]12 | inactive | inactive | 
COc1cc(/C=C/C(=O)c2cccc(N)c2)ccc1O | inactive | inactive | 
Oc1ccc(/C=C/c2cc(O)cc(O)c2)cc1 | Active | Active | 
Nc1ccc(/N=N/c2ccc(-c3ccc(/N=N/c4c(S(=O)(=O)O)cc5cc(S(=O)(=O)O)c(/N=N/c6ccccc6)c(O)c5c4N)cc3)cc2)c(N)c1 | inactive | inactive | 
O=C(O)c1cc(/N=N/c2ccc(-c3ccc(/N=N/c4ccc(O)c(C(=O)O)c4)cc3)cc2)ccc1O | inactive | inactive | 

Structure (SMILES) | Activity [1] | Activity [2] | inhibition [3]
CNc1ccc2nc3ccc(N)cc3[s+]c2c1 | inactive | inactive | 
O=C(/C=C/c1ccc(O)c(O)c1)O[C@H](Cc1ccc(O)c(O)c1)C(=O)O | inactive | inactive | 
COc1ccc(/C=C/C(=O)CC(=O)/C=C/c2ccc(OC)c(OC)c2)cc1OC | inactive | inactive | 
N[C@@H](Cc1c[nH]c2ccccc12)C(=O)O | Active | Active | inactive
Cc1ccc2[nH]c(C(=O)O)cc2c1 | Active | Active | inactive
NCCc1c[nH]c2ccccc12 | Active | Active | 
Cc1ccc2ccc3ccc(C)nc3c2n1 | Active | Active | 
OCCN1CCN(CCCN2c3ccccc3Sc3ccc(Cl)cc32)CC1 | inactive | inactive | 
O=c1c(O)c(-c2ccc(O)cc2)oc2cc(O)cc(O)c12 | inactive | inactive | 
COc1cc(/C=C/C(=O)NCCNC(=O)/C=C/c2ccc(O)c(OC)c2)ccc1O | inactive | inactive | 
COc1ccc(C(=O)c2cc(OC)cc(OC)c2)cc1 | inactive | inactive | 
O=C1C(Cl)=C(Cl)C(=O)C(Cl)=C1Cl | inactive | inactive | 
COc1cc(-c2ccc(/N=N/c3ccc4c(S(=O)(=O)O)cc(S(=O)(=O)O)c(N)c4c3O)c(OC)c2)ccc1/N=N/c1ccc2c(S(=O)(=O)O)cc(S(=O)(=O)O)c(N)c2c1O | inactive | inactive | 
COc1ccc(/C=C/c2cc(OC)cc(OC)c2)cc1 | inactive | inactive | 
Nc1c(/N=N/c2ccc(-c3ccc(/N=N/c4cc(S(=O)(=O)O)c5ccccc5c4N)cc3)cc2)cc(S(=O)(=O)O)c2ccccc12 | Active | Active | 
COc1cc(/C=C/C(=O)c2ccccc2)ccc1O | inactive | inactive | 
O=Cc1cccc(O)c1 | inactive | inactive | 
Oc1ccc(Cc2ccc(O)cc2)cc1 | inactive | inactive | 
O=Cc1c[nH]c2ccccc12 | inactive | inactive | 
O=c1cc(-c2ccc(O)cc2)oc2cc(O)cc(O)c12 | inactive | inactive | 
CN(C)[C@@H]1C(O)=C(C(=O)NCN2CCCC2)C(=O)[C@@]2(O)C(O)=C3C(=O)c4c(O)cccc4[C@@](C)(O)[C@H]3C[C@@H]12 | inactive | inactive | 
O=c1c(-c2ccc(O)cc2)coc2cc(O)cc(O)c12 | inactive | inactive | 
O=C(O)c1ccccc1O | Active | Active | 
O=C1c2c(O)cc(O)cc2O[C@H](c2ccc(O)c(O)c2)[C@H]1O | inactive | inactive | 
O=C(c1ccc(O)cc1)c1ccc(O)cc1 | inactive | inactive | 
